From US4889862A, “Freeze-dried pharmaceutical compositions of phenylquinoline carboxylic acids” (E. I. Du Pont de Nemours and Company, priority 1987, dated 1989) come the findings set out here.

Series [1] is described as follows: in vivo. Here is the method:
A comparative test was performed on the title compound to evaluate possible lethality differences between compositions described herein and compositions prepared by dissolving in water. […] Following compound administration, mortality was evaluated twice daily for 14 days.

The subject of series [2] is L1210 leukemia. Kind of series: In vivo antitumor activity against L1210 leukemia in mice (survival time). The arrangement: species or system CDF1 mice; L1210 murine leukemia. The settings on record: for Survival Time: % T/C (mean day of death treated/control × 100): intraperitoneal. Here is the method: Then distilled water (4 ml) was added to the above to make 50 mg/kg solution. Serial two-fold dilutions were made in distilled water from the 50 mg/kg solution for the remaining three concentrations. An unformulated control solution was prepared by dissolving the title compound in distilled water and was used while it remained clear.
The test was carried out as follows. On day 0, CDF1 mice were injected with 1×10^5 L1210 murine leukemia cells intraperitoneally. On day 1 formulated and unformulated title compound were injected intraperitoneally and the injections continued, once daily through day 9. Mice were observed until death.

In turn, `Cc1c(-c2ccc(-c3ccccc3F)cc2)nc2ccc(F)cc2c1C(=O)[O-].[Na+]` returned an LD50 at 336 h in series [1] (mouse, in vivo) of 156 mg/kg. The “Slope of the response curve” value in series [1] (vehicle D.I. H2O, pH = 8.5, single parenteral dose, female mice) amounted to 1.18. The “Survival Time: % T/C (mean day of death treated/control × 100)” value was 156% in series [2] (6.25 mg/kg/day × 9 days), 167% in series [2] (12.5 mg/kg/day × 9 days), 169% in series [2] (25 mg/kg/day × 9 days) and 89% in series [2] (50 mg/kg/day × 9 days). Also, in series [2] (formulated vs unformulated), the “effect of sodium cholate and glycine on antitumor activity” value is on record as “no effect on the antitumor activity”.

What is called LD50 is the dose expected to kill half of the subjects tested. A higher LD50 goes with a less toxic substance.
